# Results: patent US20240300948A1, “Heterocyclic Compounds As Kinase Inhibitors” (Incyte Corporation, priority 2023, published 2024)
# How the values were obtained:
# [1] = target: T1, pseudo-kinase domain (JH2, amino-acids 536-812 with 3 surface mutations W659A, W777A, F794H) of human V617F mutant JAK2 (Homo sapiens, UniProt O60674, F794H/V617F/W659A/W777A); assay: JAK2 LanthaScreen JH2-V617F binding assay; conditions: 50 nM tracer, 1 hour at 25° C., read-out: JH2 BIND V617F IC50
# T1 construct: pseudo-kinase domain (JH2, amino-acids 536-812 with 3 surface mutations W659A, W777A, F794H); His (C); Avi (biotinylated) (C); purchased BPS Bioscience 79498; host or cells: baculovirus expression system
# Protocol: Example C. JAK2 LanthaScreen JH2-V617F Binding Assay
# (§1) JAK2 JH2-V617F binding assay utilizes pseudo-kinase domain (JH2, amino-acids 536-812 with 3 surface mutations W659A, W777A, F794H) of human V617F mutant JAK2 expressed as C-terminal His-Avi-tagged, biotinylated protein in a baculovirus expression system (BPS Bioscience, Catalog #79498). The assay was conducted in black 384-well polystyrene plates in a final reaction volume of 20 μL. JAK2 JH2-V617F (0.26 nM) was incubated with compounds (100 nL serially diluted in DMSO) in the presence of 50 nM Fluorescent JAK2-JH2 Tracer (MedChem Express Catalog #HY-102055) and 0.25 nM Streptavidin-Tb cryptate (Cisbio Part #610SATLB) in assay buffer (50 mM Tris, pH=7.5, 10 mM MgCl2, 0.01% Brij-35, 0.1% BSA, 1 mM EGTA, 5% Glycerol and 5 mM DTT). Non-specific binding was accessed in the presence of 2 mM ATP. After incubation for 1 hour at 25° C., LanthaScreen signals were read on a PHERAstar FS plate reader (BMG LABTECH). Data was analyzed with IDBS XLfit and GraphPad Prism 5.0 software using a four parameter dose response curve to determine IC50 for each compound.
# [2] = target: T2, pseudo-kinase domain (JH2, amino-acids 536-812 with 3 surface mutations W659A, W777A, F794H) of human Wild Type JAK2 (Homo sapiens, UniProt O60674, F794H/W659A/W777A); assay: JAK2 LanthaScreen JH2-WT binding assay; conditions: 50 nM tracer, 1 hour at 25° C., read-out: JH2 BIND WT IC50
# T2 construct: pseudo-kinase domain (JH2, amino-acids 536-812 with 3 surface mutations W659A, W777A, F794H); His (C); Avi (biotinylated) (C); purchased BPS Bioscience 79463; host or cells: baculovirus expression system
# Protocol: Example B. JAK2 LanthaScreen JH2-WT Binding Assay
# as §1, with “JH2-WT” for “JH2-V617F”, “Wild Type” for “V617F mutant”, “#79463).” for “#79498).”, “JH2-WT (0.145” for “JH2-V617F (0.26”
# [3] = target: T3, catalytic domain (JH1, amino acids 826-1132) of human JAK2 (Homo sapiens, UniProt O60674); assay: JAK2 LanthaScreen JH1 binding assay; conditions: 50 nM tracer, 2 hours at 25° C., read-out: JH1 BIND IC50
# T3 construct: catalytic domain (JH1, amino acids 826-1132) of human JAK2; FLAG (N); purchased Carna Biosciences 08-445-20N; host or cells: baculovirus expression system
# Protocol: Example A. JAK2 LanthaScreen […] Binding Assay
# JAK2 JH1 binding assay utilizes catalytic domain (JH1, amino acids 826-1132) of human JAK2 expressed as N-terminal FLAG-tagged, biotinylated protein in a baculovirus expression system (Carna Biosciences, Product #08-445-20N). The assay was conducted in black 384-well polystyrene plates in a final reaction volume of 20 μL. JAK2 JH1 (1.5 nM) was incubated with compounds (100 nL serially diluted in DMSO) in the presence of 50 nM fluorescent JAK2-JH1 tracer and 0.5 nM Streptavidin-Tb cryptate (Cisbio Part #610SATLB) in assay buffer (50 mM Tris, pH=7.5, 10 mM MgCl2, 0.01% Brij-35, 0.1% BSA, 1 mM EGTA, 5% Glycerol and 5 mM DTT). Non-specific binding was accessed in the presence of 2 mM ATP. After incubation for 2 hours at 25° C., LanthaScreen signals were read on a PHERAstar FS plate reader (BMG LABTECH). Data was analyzed with IDBS XLfit and GraphPad Prism 5.0 software using a four parameter dose response curve to determine IC50 for each compound.
# T3 sequence (O60674 826-1132): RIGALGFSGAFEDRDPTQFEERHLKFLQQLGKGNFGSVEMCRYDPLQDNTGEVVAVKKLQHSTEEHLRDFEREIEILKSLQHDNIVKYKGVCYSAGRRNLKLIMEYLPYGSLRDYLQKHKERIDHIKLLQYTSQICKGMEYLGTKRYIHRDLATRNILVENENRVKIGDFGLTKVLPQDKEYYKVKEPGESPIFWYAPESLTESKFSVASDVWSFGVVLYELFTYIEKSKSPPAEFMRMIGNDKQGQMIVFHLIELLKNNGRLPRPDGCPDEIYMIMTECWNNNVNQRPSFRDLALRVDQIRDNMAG
# T1 sequence (O60674 536-812 V617F/W659A/W777A/F794H): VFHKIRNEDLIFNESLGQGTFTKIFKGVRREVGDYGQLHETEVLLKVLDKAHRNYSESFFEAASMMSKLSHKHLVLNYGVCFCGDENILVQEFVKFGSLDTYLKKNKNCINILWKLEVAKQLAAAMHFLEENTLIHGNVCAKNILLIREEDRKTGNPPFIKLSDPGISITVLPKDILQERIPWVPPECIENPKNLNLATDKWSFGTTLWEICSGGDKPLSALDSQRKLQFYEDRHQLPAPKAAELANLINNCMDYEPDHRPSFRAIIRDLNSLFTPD
# T2 sequence (O60674 536-812 W659A/W777A/F794H): as the sequence (O60674 536-812 V617F/W659A/W777A/F794H) above, with F82V counted along it
Structure (SMILES),IC50 [1],IC50 [2],IC50 [3]
"CC(C)n1ncc2cc(-c3c(-c4cnn(C)c4)[nH]c4ncc5c(c34)N([C@H]3C[C@H](NS(C)(=O)=O)C3)C(=O)NC5)ccc21 [Example 3, N-((1r,3r)-3-(9-(1-Isopropyl-1H-indazol-5-yl)-8-(1-methyl-1H-pyrazol-4-yl)-2-oxo-2,3,4,7-tetrahydro-1H-pyrrolo[3′,2′:5,6]pyrido[4,3-d]pyrimidin-1-yl)cyclobutyl) methan esulfonamide]",≤ 10 nM,≤ 10 nM,10 to 100 nM
"CC(C)COC(=O)N[C@@H]1CC[C@@H](N2C(=O)NCc3cnc4[nH]c(-c5cnn(C)c5)c(-c5ccc6c(cnn6C(C)C)c5)c4c32)C1 [Example 12, Isobutyl ((1R,3R)-3-(9-(1-isopropyl-1H-indazol-5-yl)-8-(1-methyl-1H-pyrazol-4-yl)-2-oxo-2,3,4,7-tetrahydro-1H-pyrrolo[3′,2′:5,6]pyrido[4,3-d]pyrimidin-1-yl)cyclopentyl) carbamate]",10 to 100 nM,10 to 100 nM,> 1000 nM
"COC(=O)N[C@@H]1CC[C@@H](N2C(=O)NCc3cnc4[nH]c(-c5cnn(C)c5)c(-c5ccc(OC6CCOC6)cc5)c4c32)C1 (mixture of isomers) [Example 27, Methyl ((1R,3R)-3-(8-(1-methyl-1H-pyrazol-4-yl)-2-oxo-9-(4-((tetrahydrofuran-3-yl)oxy)phenyl)-2,3,4,7-tetrahydro-1H-pyrrolo[3′,2′:5,6]pyrido[4,3-d]pyrimidin-1-yl)cyclopentyl)ca rbamate]",10 to 100 nM,10 to 100 nM,100 to 500 nM
"CC(C)n1ncc2cc(-c3c(-c4cnn(C)c4)[nH]c4ncc5c(c34)N(C3CCN(C(=O)NCC(F)F)CC3)C(=O)NC5)ccc21 [Example 17, N-(2,2-Difluoroethyl)-4-(9-(1-isopropyl-1H-indazol-5-yl)-8-(1-methyl-1H-pyrazol-4-yl)-2-oxo-2,3,4,7-tetrahydro-1H-pyrrolo[3′,2′:5,6]pyrido[4,3-d]pyrimidin-1-yl)piperidine-1-carboxamide]",10 to 100 nM,10 to 100 nM,> 1000 nM
"COC(=O)N[C@]1(C)CC[C@H](N2C(=O)NCc3cnc4[nH]c(-c5cnn(C)c5)c(-c5ccc6c(cnn6C(C)C)c5)c4c32)CC1 [Example 13, Methyl ((1s,4s)-4-(9-(1-isopropyl-1H-indazol-5-yl)-8-(1-methyl-1H-pyrazol-4-yl)-2-oxo-2,3,4,7-tetrahydro-1H-pyrrolo[3′,2′:5,6]pyrido[4,3-d]pyrimidin-1-yl)-1-methylcyclohexyl)carbamate]",10 to 100 nM,10 to 100 nM,> 1000 nM
"COC(=O)N1CCC(N2C(=O)NCc3cnc4[nH]c(-c5cnn(C)c5)c(-c5ccc6c(cnn6C(C)C)c5)c4c32)CC1 [Example 14, Methyl 4-(9-(1-isopropyl-1H-indazol-5-yl)-8-(1-methyl-1H-pyrazol-4-yl)-2-oxo-2,3,4,7-tetrahydro-1H-pyrrolo[3′,2′:5,6]pyrido[4,3-d]pyrimidin-1-yl)piperidine-1-carboxylate]",10 to 100 nM,10 to 100 nM,> 1000 nM
"CC(C)n1ncc2cc(-c3c(-c4cnn(C)c4)[nH]c4ncc5c(c34)N([C@H]3C[C@@H](NC(=O)Cc4ccn(C)n4)C3)C(=O)NC5)ccc21 [Example 21, N-((1s,3s)-3-(9-(1-Isopropyl-1H-indazol-5-yl)-8-(1-methyl-1H-pyrazol-4-yl)-2-oxo-2,3,4,7-tetrahydro-1H-pyrrolo[3′,2′:5,6]pyrido[4,3-d]pyrimidin-1-yl)cyclobutyl)-2-(1-methyl-1H-pyrazol-3-yl)acetamide]",10 to 100 nM,10 to 100 nM,500 to 1000 nM
"COC(=O)N[C@H]1C[C@H](N2C(=O)NCc3cnc4[nH]c(C5=CCN(C)CC5)c(-c5ccc6c(cnn6C(C)C)c5)c4c32)C1 [Example 34, Methyl ((1r,3r)-3-(9-(1-isopropyl-1H-indazol-5-yl)-8-(1-methyl-1,2,3,6-tetra hydropyridin-4-yl)-2-oxo-2,3,4,7-tetrahydro-1H-pyrrolo[3′,2′:5,6]pyrido[4,3-d]pyrimidin-1-yl)cyclobutyl) carbamate]",10 to 100 nM,10 to 100 nM,> 1000 nM
"COC(=O)N[C@@H]1CC[C@@H](N2C(=O)NCc3cnc4[nH]c(-c5cnn(C)c5)c(-c5ccc6c(c5)COC6(C)C)c4c32)C1 [Example 26, Methyl ((1R,3R)-3-(9-(1,1-dimethyl-1,3-dihydroisobenzof uran-5-yl)-8-(1-methyl-1H-pyrazol-4-yl)-2-oxo-2,3,4,7-tetrahydro-1H-pyrrolo[3′,2′:5,6]pyrido[4,3-d]pyrimidin-1-yl)cyclopentyl)ca rbamate]",≤ 10 nM,≤ 10 nM,500 to 1000 nM
"CC(C)n1ncc2cc(-c3c(-c4cnn(C)c4)[nH]c4ncc5c(c34)N(C3CCN(S(C)(=O)=O)CC3)C(=O)NC5)ccc21 [Example 16, 9-(1-Isopropyl-1H-indazol-5-yl)-8-(1-methyl-1H-pyrazol-4-yl)-1-(1-(methylsulfonyl)piperidin-4-yl)-1,3,4,7-tetrahydro-2H-pyrrolo [3′,2′:5,6]pyrido[4,3-d]pyrimidin-2-one]",10 to 100 nM,10 to 100 nM,> 1000 nM
"COC(=O)N[C@@H]1CC[C@@H](n2c(=O)ncc3cnc4[nH]c(-c5cnn(C)c5)c(-c5ccc6c(cnn6C)c5)c4c32)C1 [Example 37, Methyl ((1R,3R)-3-(9-(1-methyl-1H-indazol-5-yl)-8-(1-methyl-1H-pyrazol-4-yl)-2-oxo-2,7-dihydro-1H-pyrrolo[3′,2′:5,6]pyrido[4,3-d]pyrimidin-1-yl)cyclopentyl)carbamate]",100 to 500 nM,100 to 500 nM,> 1000 nM
"COC(=O)N[C@H]1C[C@H](N2C(=O)NCc3cnc4[nH]c(-c5ccc(CN6CCOCC6)cc5)c(-c5ccc6c(cnn6C(C)C)c5)c4c32)C1 [Example 33, Methyl ((1r,3r)-3-(9-(1-isopropyl-1H-indazol-5-yl)-8-(4-(morpholinomethyl)phenyl)-2-oxo-2,3,4,7-tetrahydro-1H-pyrrolo[3′,2′:5,6]pyrido[4,3-d]pyrimidin-1-yl)cyclobutyl)carbamate]",≤ 10 nM,≤ 10 nM,> 1000 nM
"CC(=O)N1CCC(N2C(=O)NCc3cnc4[nH]c(-c5cnn(C)c5)c(-c5ccc6c(cnn6C(C)C)c5)c4c32)CC1 [Example 15, 1-(1-Acetylpiperidin-4-yl)-9-(1-isopropyl-1H-indazol-5-yl)-8-(1-methyl-1H-pyrazol-4-yl)-1,3,4,7-tetrahydro-2H-pyrrolo [3′,2′:5,6]pyrido[4,3-d]pyrimidin-2-one]",10 to 100 nM,10 to 100 nM,> 1000 nM
